# Measured values: ChEMBL document CHEMBL3507680, “University of Dundee, Gates Library screen for HepG2 cell viability”
# Assay: Human HepG2 cell viability assay in 384 well format
# Type: toxicity, cell-based
# Design: dose 125 nL, time 70.5 hour; cytotoxicity at 70.5 h: concentration not given beside the values
# Settings: HepG2 cells, read-out: Inhibition
row,SMILES,cytotoxicity at 70.5 h
1,CNCC[C@H]1CC(C)(C)Oc2ccc(OCC3CC3)cc21,7.09%
2,O=c1[nH][nH]cc1-c1ccnc(NCCc2ccc(F)cc2)n1,-6.1%
3,CNCC(=O)Nc1cccc(-c2cnc(NCCO)nc2)c1,-1.04%
4,COCCCNc1nc(CNC(C)=O)cc(-c2ccco2)n1,-8.32%
5,CC1(C)C[C@H](CCNC(=O)c2ccncc2)c2ccccc2O1,-10%
6,Cc1[nH]c2ccccc2c1-c1ccnc(N[C@@H](CO)C(C)C)n1,-3.22%
7,CNc1ncc(-c2ccc(NC(=O)[C@@H]3CCCCN3)cc2)cn1,-1.05%
8,Cc1ncc(-c2ccnc(NCCO)n2)c(C2CCCCC2)n1,21.9%
9,CC1(c2ccccc2)CCC(=O)N(CCN2CCOCC2)C1 (stereo unspecified),-5.69%
10,CN(C(=O)CC1=CCCCC1)C1CCCN(CCc2ccccc2)C1 (stereo unspecified),-5.66%
11,CCC(=O)Nc1cccc(OCC(=O)N(C)Cc2cc(COC)[nH]n2)c1,-4.96%
12,CC(=O)Nc1ccc(CNCc2cccnc2N(C)C)cc1,1.4%
13,Cc1cccc(C2CCCN(C(=O)C3CCN(CC(N)=O)CC3)C2)c1 (stereo unspecified),-17.7%
14,Cc1ccc(C2(O)CCN(Cc3nnc(-c4cccnc4)o3)CC2)nc1,-2.19%
15,Cc1ccccc1CC1(C(=O)O)CCCN(c2ncccn2)C1 (stereo unspecified),-7.63%
16,NC(=O)Cn1ccnc1C1CCCN(CCSc2ccccc2)C1 (stereo unspecified),-12.6%
17,Cc1cc(F)ccc1OC1(C(=O)O)CCN(Cc2nccn2C)CC1,-7.09%
18,Cc1ncsc1CN1CC(C)(C2CC2)CC1=O (stereo unspecified),-12.2%
19,Cc1ccc(Cl)c(CN2CCN(C)C(C(=O)O)C2)c1F (stereo unspecified),-5.85%
20,COc1ccc(F)c(CN2CCCC(O)(CNCc3ccon3)C2=O)c1 (stereo unspecified),8.61%
21,N#Cc1cccc(N2CCC(c3nccn3Cc3cscn3)CC2)n1,-2.31%
22,O=C(N[C@@H]1CCNC[C@H]1O)c1ccc(-c2ccc(F)cc2)cc1,-1.9%
23,Cc1ccc(-n2ccnc2-c2cn(C3CCNCC3)nn2)c(Cl)c1,2.06%

row,SMILES,cytotoxicity at 70.5 h
1,Cc1cc(C)n(Cc2cc(C(=O)N[C@H]3CCCCNC3=O)n[nH]2)n1,-3.71%
2,CCNc1ccnc(N2CCN(Cc3ncccc3C)CC2)n1,3.6%
3,CCCn1nc(C)c(CN2CC3(CCOC3)CCC2=O)c1C (stereo unspecified),-8.62%
4,Cc1ccc(OC2(C(=O)O)CCN(C(=O)c3ccccc3F)CC2)cn1,-3.34%
5,CN(C)c1nc(NCCc2ccccn2)ncc1F,25.5%
6,CN1CCN(Cc2c(Cl)ccc(O)c2Cl)CC1C(=O)O (stereo unspecified),-16.7%
7,CN1CCN(C[C@@H]2CN(C(=O)CCc3cn[nH]c3)C[C@@H]2CO)CC1,-6.13%
8,CN1CCN(C2CCCC2)C(CCO)C1 (stereo unspecified),-1.81%
9,COc1ccccc1OC1CN(c2ccncc2)C1,-4.23%
10,CC(C)n1ccnc1C1CCCN(c2cncc(N(C)C)n2)C1 (stereo unspecified),2.84%
11,Cn1c(Cn2ncc(N3CCCCC3)cc2=O)nc2ccccc21,44.3%
12,COC(=O)[C@@H](Nc1nc(C2CCCC2)nc2c1cnn2C)[C@@H](C)O,-11.8%
13,CNc1cc(C)nc(N2CCC3(CC2)[C@H](O)C[C@@H]3OCCN(C)C)n1,-1.9%
14,Cc1n[nH]c(C)c1CCNC(=O)C1CCCN(Cc2ccco2)C1 (stereo unspecified),9.52%
15,CC[C@H](C)[C@@H](CO)NC(C)Cc1ccc(C)cc1 (stereo partly specified),-2%
16,CC(=O)c1ccc(N2CCC3(CCC(=O)N(CCCO)C3)CC2)nc1,3.25%
17,CN1CCN(c2cc(Sc3cccs3)nc(N)n2)CC1CCO (stereo unspecified),-7.97%
18,Cc1c[nH]c(CN2CC[C@@]3(O)CCN(C(=O)C4CCCC4)C[C@H]3C2)n1,19.2%
19,CCC(NC1Cc2ccccc2C1)c1ccc(S(C)(=O)=O)cc1 (stereo unspecified),-14.8%
20,Cc1csc2c(=O)n(CCSc3cnn[nH]3)cnc12,-7.83%
21,CCn1cnc(NC(=O)N2CCCC(c3ccccc3)CC2)n1 (stereo unspecified),-6.51%
22,COCCNC(=O)[C@H]1C[C@@](CC(C)C)(C(=O)O)N(C)[C@H]1c1cccnc1,1.74%
23,Cc1cccc2nc(C(=O)N3CCC4(CCC(=O)N(C)C4)CC3)c(F)n12,-11.3%

row,SMILES,cytotoxicity at 70.5 h
1,Cn1cc(CN(C(=O)c2ccc3ncsc3c2)C2CC2)cn1,19.6%
2,COc1ccccc1OCc1cc(C(=O)N2CCC(NC(C)=O)C2)n[nH]1 (stereo unspecified),2.49%
3,Cc1noc(C)c1C(=O)N1CCC2(CC1)c1nc[nH]c1CCN2C,-3.9%
4,CC(C(=O)N1CCN(CCOc2ccccc2)CC1)n1cc(Cl)cn1 (stereo unspecified),-9.22%
5,CCc1cc(N(C)Cc2ccno2)n2nc(C)c(C)c2n1,-2.75%
6,O=C(O)C1(Oc2cccc(F)c2)CCN(c2ccncc2)CC1,-0.0629%
7,CC(C)c1cc(N2CCC(C(C)N3CCCC3)CC2)n2nccc2n1 (stereo unspecified),-3.16%
8,COCCCC1(CO)CCCN(Cc2cccc(C#N)c2)C1 (stereo unspecified),-5.8%
9,CC(C)(C)CNCC1(O)CCCN(Cc2ccccc2F)C1=O (stereo unspecified),0.716%
10,NC(=O)C1CN(c2ncnc3c2Cc2ccccc2OC3)CCO1 (stereo unspecified),-3.79%
11,CN(Cc1ccncn1)c1nccc(CCC(F)(F)F)n1,23%
12,Fc1cc(Cl)cnc1N1CCCC(c2nccn2Cc2ccccn2)C1 (stereo unspecified),10.1%
13,CSCCc1n[nH]c2c1CN(S(=O)(=O)c1c(C)nn(C)c1C)CC2,17.2%
14,COc1ccnc(CN2CCCC(CCc3ccccc3)C2)c1OC (stereo unspecified),3.51%
15,Cc1ccc2cc(C3(O)CCN(C)CC3)ccc2n1,-0.603%
16,O=C(c1ccncc1)N1C[C@@H]2CC[C@H](C1)N(S(=O)(=O)c1cccnc1)C2,-5.9%
17,CCC(C(=O)N(C)Cc1cc(COC)[nH]n1)n1cccn1 (stereo unspecified),-11.5%
18,CCNC(=O)C1CN(Cc2c(-c3cc(C)on3)nn(C)c2Cl)CCO1 (stereo unspecified),2.76%
19,O=C(c1cccc(Oc2ccccc2)c1)N1CCCC(O)(CO)CC1 (stereo unspecified),-8.12%
20,Cc1ccc(CN2CCOCS2(=O)=O)cc1F,-9.79%
21,CCn1nc(C)c(CCNC(=O)C2CCCN(C(N)=O)C2)c1C (stereo unspecified),19.9%
22,COc1ccc(C(C(=O)O)N(C)Cc2c(C)nn(C)c2C)c(C)c1 (stereo unspecified),-10%
23,CCN(Cc1noc(C2CC2)n1)C(=O)c1onc2ccccc12,-8.65%

row,SMILES,cytotoxicity at 70.5 h
1,O=C(c1n[nH]cc1Cl)N1CCOC(Cc2cccc(C(F)(F)F)c2)C1 (stereo unspecified),-4.63%
2,CC(C)c1cc(N2CCSCC2)n2nccc2n1,19.1%
3,COc1ccc(CN2CCN(C(=O)N(C)C)[C@@H]3CS(=O)(=O)C[C@@H]32)cc1F,4.21%
4,CCN1CCCC(c2c(-c3ccccc3)ncn2Cc2cccnc2)C1 (stereo unspecified),-9.92%
5,COCCN1CCCC(O)(CN2CCCN(c3ncccn3)CC2)C1=O (stereo unspecified),2.84%
6,CN(C)CC1(O)CCN(C(=O)c2ccc(-n3cccn3)cc2Cl)C1 (stereo unspecified),5.18%
7,O=c1cc(CN2C[C@H]3CC[C@@H]2CN(Cc2ccccc2)C3)[nH]c(=O)[nH]1,2.22%
8,O=C(NC1CCOC1)c1cccc(S(=O)(=O)NCCCc2ncc[nH]2)c1 (stereo unspecified),-13.4%
9,COc1coc(CN2CCCC(CCc3ccc(F)c(F)c3)C2)cc1=O (stereo unspecified),15.5%
10,Cc1cc(C(F)(F)F)cc(N2CCC3(CCC(=O)N(CCO)C3)CC2)n1,-4.65%
11,Cc1ccc(-c2nnc(CN3CC[C@H](CO)[C@@H](O)C3)o2)n1C,-2.96%
12,CC(Cc1cnccn1)NC(=O)COc1ccc(F)cc1F (stereo unspecified),3.61%
13,CCc1cnc(N)nc1NCCn1cc(Cl)cn1,-6.52%
14,COc1cccc(OC2CN(C(=O)Cn3nc4ccccc4n3)C2)c1,-5.28%
15,CN(CCC1CCOCC1)[C@@H]1c2ccccc2C2(CCNCC2)[C@H]1O,-4.06%
16,NC(=O)C1CCN(CC(=O)NCCn2cc(Cl)cn2)CC1,13.2%
17,O=C(c1ccccn1)N1C[C@@H]2CC[C@H](C1)N(C(=O)CCC1CCCC1)C2,-1.69%
18,COc1ccc(OC)c(CNC2CCCc3nc(N(C)C)ncc32)c1 (stereo unspecified),-7.31%
19,Nc1cc(C(=O)N2CCC3(CC2)Nc2ccccc2NC3=O)ccn1,19.6%
20,CCOc1ncccc1Cn1cc(-c2ccc(CO)o2)nn1,-15.3%
21,COc1ccc(C(=O)NCC2CCCN(C3CCOCC3)C2)c(O)c1 (stereo unspecified),23.3%
22,COc1cccc(CCC2CCCN(Cc3ncc[nH]3)C2)c1 (stereo unspecified),29.4%
23,Cc1[nH]c2c(F)cccc2c1CC(=O)N1CCC(NS(C)(=O)=O)CC1,-7.49%

row,SMILES,cytotoxicity at 70.5 h
1,CN1CC[C@H]2CN(C(=O)c3ccc4sc5c(c4c3)CCNC5=O)C[C@H]21,-1.19%
2,CCOc1ccccc1OCCN(C)Cc1nccn1C,-5.37%
3,CC(=O)N1CCC(C(=O)NC2CC(C)(C)Oc3cc(C)ccc32)CC1 (stereo unspecified),12.8%
4,COCCc1noc(CNC(=O)C2CC(=O)N(C(C)(C)C)C2)n1 (stereo unspecified),-7.37%
5,Cc1cc(C2CCC2)nc(N(C)CCc2ccccn2)n1,-5.51%
6,O=C1OCCN1CC(=O)N1C[C@H]2CC[C@@H]1CN(Cc1cscn1)C2,27.8%
7,Cc1cc2n(n1)CCN(c1nc(N)nc3c1CCNCC3)C2,-13.6%
8,Cc1ccnc(NCCNC(=O)CCNC(=O)c2ccccc2F)c1,1.01%
9,CCCN(CCc1ccccc1)c1ncnc2oc(C)nc12,-2.57%
10,Cc1cccnc1CN1CCN(C(=O)CCn2ccccc2=O)CC1,0.0273%
11,CNc1nc(C(=O)N2CCCN(c3ccnc(C)c3)CC2)cs1,-5.86%
12,COCCN(Cc1sccc1C)c1nc(C)nc2sccc12,-3.07%
13,COc1nc2c(cc1C(=O)N(C)Cc1noc3c1CCCC3)CCC2,-0.83%
14,CC(C1CCN(Cc2cnn(C)c2C2CC2)CC1)N1CCN(C)CC1 (stereo unspecified),-3.33%
15,CNc1cc(C)nc(N2CCN(Cc3ccccc3)CC(O)C2)n1 (stereo unspecified),-0.369%
16,c1nc2c(c(NC3COC4(CCCC4)C3)n1)CCNCC2 (stereo unspecified),-5.17%
17,CC(C)(N)C(=O)N1CCCC(C(=O)c2ccc(C(C)(C)C)cc2)C1 (stereo unspecified),-3.3%
18,Cc1ccc(-c2ncc(C(=O)N3CCCN4CCC[C@H]4C3)c(O)n2)cc1,5.02%
19,COc1ccc(-c2cccc(-c3ccn(CCN(C)C)n3)c2)nn1,-3.58%
